Experimental findings from PubChem BioAssay AID489035 (Sanford-Burnham Center for Chemical Genomics, 2010) are described below.

pIC50: −log10 of the molar value. Activity calls are given as the source filed them. The rule behind the calls is not given here.

The assay relates to Jurkat NF-kB reporter, TCR-induced, luciferase luminescence. The experiment in a line: T-cell NF-kB luciferase reporter inhibition – Jurkat cells, luminescence, dose response (AID 489035). Background: In a reporter assay the amount or activity of a reporter protein is the signal.

As usually defined, the IC50 is the concentration needed to halve the response being measured. Take `O=C(NCc1cccs1)C1CCN(c2ccc(S(=O)(=O)N3CCOCC3)cc2Cl)CC1`: the IC50 is 25.6 µM (inactive).
Same read-out and setting: the figure for `Cc1csc2ncnc(NC3CCN(Cc4ccccc4)CC3)c12` is > 80 µM (inactive); for `Cc1cccc(OCCNC(=O)c2ccc(Cl)c(S(=O)(=O)NCc3cccnc3)c2)c1` it is > 80 µM (inactive).
In general, pIC50 refers to −log10 of the IC50, conventionally taken in molar units. `COc1cc(C2=NOC(C(=O)NCc3ccc(F)cc3)C2)cc(OC)c1OC` (centres undefined): the pIC50 was 5.21.
